Values quoted from earlier work in US12100485B2, “Machine learning and molecular simulation based methods for enhancing binding and activity prediction” (The Board of Trustees of the Leland Stanford Junior …, priority 2018, dated 2024).

Tested on: μOR
Details: not given

**Q.** With CN1CC[C@]23c4c5ccc(O)c4O[C@H]2[C@@H](O)C=C[C@H]3[C@H]1C5 [morphine] as the compound, how does the Action read?
**A.** agonist

**Q.** Which Action does the source give for CCOC(=O)C1(c2ccccc2)CCN(CCOCc2ccccc2)CC1 [benzethidine] here?
**A.** agonist

**Q.** With CN1CC[C@]23c4c5ccc(O)c4O[C@H]2C(=O)CC[C@@]3(O)[C@H]1C5 [oxymorphone] as the compound, how does the Action read?
**A.** agonist

**Q.** With Oc1ccc2c(c1)[C@@]13CCCC[C@H]1[C@@H](C2)N(CCc1ccccc1)CC3 [phenomorphan] as the compound, how does the Action read?
**A.** agonist

**Q.** With CCC(=O)C(C[C@@H](C)N(C)C)(c1ccccc1)c1ccccc1 [levomethadone] as the compound, how does the Action read?
**A.** agonist

**Q.** For C[C@H]1CN(CC[C@H](O)C2CCCCC2)CC[C@@]1(C)c1cccc(O)c1 [ly-255582], which Action is on record?
**A.** antagonist

**Q.** For Oc1ccc2c(c1)[C@@]13CCCC[C@@]1(O)[C@@H](C2)N(CC1CC1)CC3 [oxilorphan], which Action is on record?
**A.** Antagonists

**Q.** Which Action does the source give for CCOC(=O)C1(c2ccccc2)CCCN(C)CC1 (centres unmarked) [ethoheptazine] here?
**A.** agonist

**Q.** For CC(=O)OC1(c2ccccc2)CCN(CCc2ccccc2)CC1 [pepap], which Action is on record?
**A.** agonist

**Q.** For CCOC(=O)C1(c2ccccc2)CCN(CC(O)c2ccccc2)CC1 (centres unmarked) [oxpheneridine], which Action is on record?
**A.** agonist

**Q.** For NC(=O)c1cccc([C@H]2C[C@H]3CC[C@@H](C2)N3CCN(CC2CCCCC2)C(=O)[C@@H](O)CO)c1 [axelopran], which Action is on record?
**A.** antagonist

**Q.** With CCCCCN[C@@]12C=CC(=O)[C@@H]3Oc4c(O)ccc5c4[C@@]31CCN(C)[C@@H]2C5 [pentamorphone] as the compound, how does the Action read?
**A.** agonist

**Q.** For CCOC(=O)C1(c2ccccc2)CCN(CCC(O)c2ccccc2)CC1 (centres unmarked) [phenoperidine], which Action is on record?
**A.** agonist

**Q.** Which Action does the source give for CC(C)C[C@@H](NC(=O)[C@H](Cc1ccccc1)NC(=O)CNC(=O)[C@@H](C)NC(=O)[C@@H](N)Cc1ccc(O)cc1)C(=O)O [dadle] here?
**A.** agonist

**Q.** For CN1CC[C@]23c4c5ccc(O)c4O[C@H]2[C@@H](O)CC[C@@]3(O)[C@H]1C5 [hydromorphinol], which Action is on record?
**A.** agonist

**Q.** With endomorphin-1 as the compound, how does the Action read?
**A.** agonist

**Q.** With CCOC(=O)C1(c2ccccc2)CCN(CCc2ccccc2)CC1 [pheneridine] as the compound, how does the Action read?
**A.** agonist

**Q.** For CC[C@H](OC(C)=O)C(C[C@@H](C)N(C)C)(c1ccccc1)c1ccccc1 [betacetylmethadol], which Action is on record?
**A.** agonist

**Q.** For CCC(=O)OC1(c2ccccc2)CCCN(C)CC1C (centres unmarked) [proheptazine], which Action is on record?
**A.** agonist

**Q.** With C[N@+]1(CC2CC2)CC[C@]23CC(=O)CC[C@@]2(O)[C@H]1Cc1ccc(C(N)=O)c(O)c13 [methylsamidorphan] as the compound, how does the Action read?
**A.** antagonist

**Q.** Which Action does the source give for CN1CCC23CCCCC2C1Cc1ccc(O)cc13 (stereo not drawn) [racemorphan] here?
**A.** agonist

**Q.** With CCOC(=O)C1(c2ccccc2)CCN(CCN2CCOCC2)CC1 [morpheridine] as the compound, how does the Action read?
**A.** agonist

**Q.** For CCOC(=O)C(CCN1CCOCC1)(c1ccccc1)c1ccccc1 [dioxaphetyl_butyrate], which Action is on record?
**A.** agonist

**Q.** For C[C@@H](NC(=O)[C@@H](N)Cc1ccc(O)cc1)C(=O)NCC(=O)N(C)[C@@H](Cc1ccccc1)C(=O)NCCO [damgo], which Action is on record?
**A.** agonist

**Q.** Which Action does the source give for N/N=C1/CC[C@@]2(O)[C@H]3Cc4ccc(O)c5c4[C@@]2(CCN3CC2CC2)[C@H]1O5 [naltrexazone] here?
**A.** Antagonists

**Q.** Which Action does the source give for CCOC(=O)C1(c2ccccc2)CCN(CCC(C#N)(c2ccccc2)c2ccccc2)CC1 [diphenoxylate] here?
**A.** agonist

**Q.** With endomorphin-2 as the compound, how does the Action read?
**A.** agonist

**Q.** Which Action does the source give for COc1ccc2c3c1O[C@H]1[C@@H](O)CC[C@H]4[C@@H](C2)N(C)CC[C@@]341 [methyldihydromorphine] here?
**A.** agonist

**Q.** Which Action does the source give for CN(C)C(=O)C(CCN1CCC(O)(c2ccc(Cl)cc2)CC1)(c1ccccc1)c1ccccc1 [loperamide] here?
**A.** agonist

**Q.** With COc1ccc(CN(C(=O)[C@@H](N)Cc2c(C)cc(C(N)=O)cc2C)[C@@H](C)c2ncc(-c3ccccc3)[nH]2)cc1C(=O)O [eluxadoline] as the compound, how does the Action read?
**A.** agonist

**Q.** Which Action does the source give for CCC(OC(C)=O)C(CC(C)NC)(c1ccccc1)c1ccccc1 (centres unmarked) [noracymethadol] here?
**A.** agonist

**Q.** Which Action does the source give for CCC(=O)OC1(c2ccccc2)CCN(C)C1C (centres unmarked) [prodilidine] here?
**A.** agonist

**Q.** With CC[C@H](O)C(C[C@@H](C)N(C)C)(c1ccccc1)c1ccccc1 [betamethadol] as the compound, how does the Action read?
**A.** agonist

**Q.** For CCC(=O)OC1(c2ccccc2)CC(C)N(C)CC1C (centres unmarked) [trimeperidine], which Action is on record?
**A.** agonist

**Q.** With CO[C@@]12CCC(=O)[C@@H]3Oc4c(O)ccc5c4[C@@]31CCN(C)[C@@H]2C5 [14-methoxydihydromorphinone] as the compound, how does the Action read?
**A.** agonist

**Q.** For CCOC(C(=O)OCCN(C)C)(c1ccccc1)c1ccccc1 [dimenoxadol], which Action is on record?
**A.** agonist

**Q.** Which Action does the source give for CCOC(=O)C1(c2ccccc2)CCC=CC1N(C)C (centres unmarked) [tilidine] here?
**A.** agonist

**Q.** Which Action does the source give for N#CC(CCN1CCC(C(N)=O)(N2CCCCC2)CC1)(c1ccccc1)c1ccccc1 [piritramide] here?
**A.** agonist

**Q.** For O=C(N[C@@H]1CC[C@@]2(O)[C@H]3Cc4ccc(O)c5c4[C@@]2(CCN3CC2CC2)[C@H]1O5)c1cccc(I)c1 [ibntxa], which Action is on record?
**A.** agonist

**Q.** For CC(C)OC(=O)C1(c2ccccc2)CCN(C)CC1 [properidine], which Action is on record?
**A.** agonist

**Q.** For CN1CC[C@]23c4c5ccc(O)c4O[C@H]2[C@@H](O[C@@H]2O[C@H](C(=O)O)[C@@H](O)[C@H](O)[C@H]2O)C=C[C@H]3[C@H]1C5 [morphine-6-glucuronide], which Action is on record?
**A.** agonist

**Q.** Which Action does the source give for CCC(=O)C1(c2cccc(O)c2)CCN(C)CC1 [ketobemidone] here?
**A.** agonist

**Q.** Which Action does the source give for CC1C2Cc3ccc(O)cc3C1(C)CCN2CCc1ccccc1 (centres unmarked) [phenazocine] here?
**A.** agonist

**Q.** With COc1ccsc1CNCC[C@@]1(c2ccccn2)CCOC2(CCCC2)C1 [oliceridine] as the compound, how does the Action read?
**A.** agonist

**Q.** For CCC(=O)C(c1ccccc1)(c1ccccc1)C(C)CN(C)C (centres unmarked) [isomethadone], which Action is on record?
**A.** agonist

**Q.** Which Action does the source give for COC(=O)/C=C/C(=O)N[C@@H]1CC[C@@]2(O)[C@H]3Cc4ccc(O)c5c4[C@@]2(CCN3CC2CC2)[C@H]1O5 [beta-funaltrexamine] here?
**A.** antagonist

**Q.** With C=CCN1CC[C@]23c4c5ccc(O)c4O[C@H]2/C(=N/N=C2\CC[C@@]4(O)[C@H]6Cc7ccc(O)c8c7[C@@]4(CCN6CC=C)[C@H]2O8)CC[C@@]3(O)[C@H]1C5 [naloxonazine] as the compound, how does the Action read?
**A.** Antagonists

**Q.** With CCOC(=O)C1(c2ccccc2)CCN(CCCNc2ccccc2)CC1 [piminodine] as the compound, how does the Action read?
**A.** agonist

**Q.** For CCC(=O)C(CC(C)N1CCCCC1)(c1ccccc1)c1ccccc1 (centres unmarked) [dipipanone], which Action is on record?
**A.** agonist

**Q.** Which Action does the source give for CCOC(=O)C1(c2ccccc2)CCN(C)CC1 [pethidine] here?
**A.** agonist

**Q.** Which Action does the source give for hemorphin-4 here?
**A.** agonist

**Q.** For CCC(OC(C)=O)C(CC(C)N(C)C)(c1ccccc1)c1ccccc1 (centres unmarked) [acetylmethadol], which Action is on record?
**A.** agonist

**Q.** With CN1CC[C@]23c4c5ccc(O)c4O[C@H]2C(=O)C=C[C@H]3[C@H]1C5 [morphinone] as the compound, how does the Action read?
**A.** agonist

**Q.** For CN1CC[C@]23c4c5ccc(O)c4O[C@@]2(C)C(=O)CC[C@H]3[C@H]1C5 [metopon], which Action is on record?
**A.** agonist

**Q.** Which Action does the source give for CCC(=O)C(CC(C)N1CCOCC1)(c1ccccc1)c1ccccc1 (centres unmarked) [phenadoxone] here?
**A.** agonist

**Q.** With CCOC(=O)C1(c2ccccc2)CCN(CCOCCO)CC1 [etoxeridine] as the compound, how does the Action read?
**A.** agonist

**Q.** Which Action does the source give for CNC1(c2ccccc2Cl)CCCCC1=O (centres unmarked) [ketamine] here?
**A.** agonist

**Q.** Which Action does the source give for CN1CC[C@]2(C)c3cc(O)ccc3C[C@H]1C2(C)CCC(=O)CCC1CCCC1 (some centres unmarked) [quadazocine] here?
**A.** Antagonists

**Q.** Which Action does the source give for CN1CC[C@]2(C)C[C@@H](Cc3ccc(O)cc32)C1 [eptazocine] here?
**A.** antagonist

**Q.** With CCC(O)C(CC(C)N(C)C)(c1ccccc1)c1ccccc1 (centres unmarked) [dimepheptanol] as the compound, how does the Action read?
**A.** agonist

**Q.** For C=CCN1CC[C@]23c4c5ccc(O)c4O[C@H]2[C@@H](OCCOCCOCCOCCOCCOCCOCCOC)CC[C@@]3(O)[C@H]1C5 [naloxegol], which Action is on record?
**A.** Antagonists

**Q.** For endomorphin, which Action is on record?
**A.** agonist

**Q.** With CN1CC[C@]23c4c5ccc(O)c4O[C@H]2CCC[C@H]3[C@H]1C5 [desomorphine] as the compound, how does the Action read?
**A.** agonist

**Q.** Which Action does the source give for CCOC(=O)C1(c2ccccc2)CCN(CCc2ccc(N)cc2)CC1 [anileridine] here?
**A.** agonist

**Q.** With Oc1cccc([C@@]23CCCC[C@H]2CN(CC2CC2)CC3)c1 [ciprefadol] as the compound, how does the Action read?
**A.** agonist

**Q.** Which Action does the source give for CC[C@H](OC(C)=O)C(C[C@H](C)N(C)C)(c1ccccc1)c1ccccc1 [levacetylmethadol] here?
**A.** agonist

**Q.** Which Action does the source give for COc1cccc2c1[C@]13CCN(CC4CC4)[C@H](C2)[C@]1(OC)CCC(=O)C3 [cyprodime] here?
**A.** antagonist

**Q.** Which Action does the source give for Cc1ccc(/C=C/C(=O)N[C@@]23CCC(=O)[C@@H]4Oc5c(O)ccc6c5[C@@]42CCN(CC2CC2)[C@@H]3C6)cc1 [methocinnamox] here?
**A.** antagonist

**Q.** With NC(=O)c1ccc2c(c1O)[C@]13CCN(CC4CC4)[C@H](C2)[C@]1(O)CCC(=O)C3 [samidorphan] as the compound, how does the Action read?
**A.** Antagonists

**Q.** For O=C(/C=C/c1ccc(Cl)cc1)N[C@@]12CCC(=O)[C@@H]3Oc4c(O)ccc5c4[C@@]31CCN(CC1CC1)[C@@H]2C5 [clocinnamox], which Action is on record?
**A.** antagonist

**Q.** Which Action does the source give for Oc1ccc2c3c1O[C@H]1[C@@H](O)C=C[C@H]4[C@@H](C2)N(CCc2ccccc2)CC[C@@]341 [n-phenethylnormorphine] here?
**A.** agonist

**Q.** Which Action does the source give for CC[C@@H]1CN2CC[C@]3(Nc4cccc(OC)c4C3=O)[C@@H]2C[C@@H]1/C(=C\OC)C(=O)OC [mitragynine_pseudoindoxyl] here?
**A.** agonist

**Q.** With CO[C@@]12CCC(=O)[C@]3(C)Oc4c(O)ccc5c4[C@@]31CCN(C)[C@@H]2C5 [14-methoxymetopon] as the compound, how does the Action read?
**A.** agonist

**Q.** For CCOC(=O)C1(c2cccc(O)c2)CCN(C)CC1 [hydroxypethidine], which Action is on record?
**A.** agonist

**Q.** For COCCN1CC[C@]23c4c5ccc(O)c4O[C@H]2C(=O)CC[C@@]3(O)[C@H]1C5 [semorphone], which Action is on record?
**A.** agonist

**Q.** Which Action does the source give for CCOC(=O)C1(c2ccccc2)CCN(CCOCC2CCCO2)CC1 (centres unmarked) [furethidine] here?
**A.** agonist

**Q.** Which Action does the source give for CCC(=O)O[C@]1(c2ccccc2)CCN(C)C[C@@H]1CC [meprodine] here?
**A.** agonist

Same assay, conditions: known pharmacology, training dataset

**Q.** With C=CCN1CC[C@]23c4c5ccc(O)c4O[C@H]2C(=O)CC[C@@]3(O)[C@H]1C5 [naloxone] as the compound, how does the Action read?
**A.** Antagonists

**Q.** Which Action does the source give for C[N@+]1(CC2CC2)CC[C@]23c4c5ccc(O)c4O[C@H]2C(=O)CC[C@@]3(O)[C@H]1C5 [methylnaltrexone] here?
**A.** antagonist

**Q.** With C=C1CC[C@@]2(O)[C@H]3Cc4ccc(O)c5c4[C@@]2(CCN3CC2CC2)[C@H]1O5 [nalmefene] as the compound, how does the Action read?
**A.** Antagonists
